Holding throughout (type): in vivo
Data set [1] deals with Silverleaf Whitefly (Bemisia Argentifolii). Put plainly: Silverleaf whitefly spray test on cotton plants. The note with it: at 300 ppm; cotton plants sprayed; 3 days after treatment. An excerpt: B.8 Silverleaf Whitefly (Bemisia Argentifolii)
The active compounds were formulated in cyclohexanone as a 10,000 ppm solution supplied in tubes. The tubes were inserted into an automated electrostatic sprayer equipped with an atomizing nozzle and they served as stock solutions for which lower dilutions were made in 50% acetone:50% water (v/v). A nonionic surfactant (Kinetic) was included in the solution at a volume of 0.01% (v/v).
Cotton plants at the cotyledon stage (one plant per pot) were sprayed by an automated electrostatic plant sprayer equipped with an atomizing spray nozzle. The plants were dried in the sprayer fume hood and then removed from the sprayer. Each pot was placed into a plastic cup and about 10 to 12 whitefly adults (approximately 3-5 days old) were introduced. The insects were collected using an aspirator and a nontoxic Tygon® tubing connected to a barrier pipette tip. The tip, containing the collected insects, was then gently inserted into the soil containing the treated plant, allowing insects to crawl out of the tip to reach the foliage for feeding. Cups were covered with a reusable screened lid. […] Mortality was assessed 3 days after treatment, compared to untreated control plants.

For data set [2], the system named is Colorado Potato Beetle (Leptinotarsa Decemlineata). Put plainly: Colorado potato beetle test on sprayed eggplant foliage. Particulars: at 10 ppm, 4 days after treatment. How it is done: B.13 Colorado Potato Beetle (Leptinotarsa Decemlineata)
(§1) The active compounds were formulated in cyclohexanone as a 10,000 ppm solution supplied in tubes. The tubes were inserted into an automated electrostatic sprayer equipped with an atomizing nozzle and they served as stock solutions for which lower dilutions were made in 50% acetone:50% water (v/v). A nonionic surfactant (Kinetic®) was included in the solution at a volume of 0.01% (v/v).
Eggplants were grown 2 plants to a pot and were selected for treatment at the 1st true leaf stage. Test solutions were sprayed onto the foliage by an automated electrostatic plant sprayer equipped with an atomizing spray nozzle. The plants were dried in the sprayer fume hood and then removed from the sprayer. The treated foliage was then cut and removed from the pot and placed in a 5-inch Petri dish lined with moistened filter paper. Five beetle larvae were introduced into each Petri dish and the dish was covered by a Petri dish lid. Petri dishes were maintained in a growth room at 25° C. and 20-40% relative humidity for 4 days, avoiding direct exposure to fluorescent light (24 hour photoperiod) to prevent trapping of heat inside the dishes. Mortality and reduced feeding were assessed 4 days after treatment, compared to untreated control plants.

The subject of data set [3] is tobacco budworm (Heliothis virescens). Put plainly: Tobacco budworm microtiter plate test on insect diet with eggs. Particulars: 120 h, sprayed onto insect diet, egg and larval mortality after 5 days, read-out: mortality in comparison with untreated controls. The method, then: B.11 Tobacco Budworm (Heliothis Virescens) I
For evaluating control of tobacco budworm (Heliothis virescens) the test unit consisted of 96-well-microtiter plates containing an insect diet and 15-25 H. virescens eggs. The compounds were formulated using a solution containing 75% v/v water and 25% v/v DMSO. Different concentrations of formulated compounds were sprayed onto the insect diet at 10 μl, using a custom built micro atomizer, at two replications.
(§2) After application, microtiter plates were incubated at about 28±1° C. and about 80±5% relative humidity for 5 days. Egg and larval mortality was then visually assessed.

Data set [4] relates to Cowpea Aphid (Aphis Craccivora). The data set can be described thus: Cowpea aphid spray test on potted cowpea plants. Particulars: cowpea plants sprayed, population reduction assessed after 24, 72 and 120 hours, read-out: mortality in comparison with untreated controls. How it is done:
B.2 Cowpea Aphid (Aphis Craccivora)
Potted cowpea plants colonized with approximately 100-150 aphids of various stages were sprayed after the pest population had been recorded. Population reduction was assessed after 24, 72, and 120 hours.

For data set [5], the system named is Southern Armyworm (Spodoptera Eridania). Put plainly: Southern armyworm spray test on lima bean plants. Particulars: foliar, 96 h, lima bean foliage sprayed, 4 days after treatment, read-out: mortality in comparison with untreated controls. The method, then: B.9 Southern Armyworm (Spodoptera Eridania)
as §1
Lima bean plants (variety Sieva) were grown 2 plants to a pot and selected for treatment at the 1st true leaf stage. Test solutions were sprayed onto the foliage by an automated electrostatic plant sprayer equipped with an atomizing spray nozzle. The plants were dried in the sprayer fume hood and then removed from the sprayer. Each pot was placed into perforated plastic bags with a zip closure. About 10 to 11 armyworm larvae were placed into the bag and the bags zipped closed. Test plants were maintained in a growth room at about 25° C. and about 20-40% relative humidity for 4 days, avoiding direct exposure to fluorescent light (24 hour photoperiod) to prevent trapping of heat inside the bags. Mortality and reduced feeding was assessed 4 days after treatment, compared to untreated control plants.

The test system of data set [6] is Red Spider Mite (Tetranychus Kanzawai). Put plainly: Red spider mite spray test on potted cowpea beans. Particulars: cowpea beans sprayed, after 72 h, read-out: mortality in comparison with untreated controls. The method, then: B.14 Red Spider Mite (Tetranychus Kanzawai)
The active compound was dissolved at the desired concentration in a mixture of 1:1 (v/v) distilled water:acetone. A surfactant (Alkamuls® EL 620) was added at the rate of 0.1% (v/v).
Potted cowpea beans of 7-10 days of age were cleaned with tap water and sprayed with 5 ml of the test solution using air driven hand atomizer. The treated plants were allowed to air dry and afterwards inculated with 20 or more mites by clipping a cassaya leaf section with known mite population. Treated plants were placed inside a holding room at about 25-27° C. and about 50-60% relative humidity.
Mortality was determined by counting the live mites 72 HAT. Percent mortality was assessed after 72 h.

Data set [7] concerns boll weevil (Anthonomus grandis). The data set can be described thus: Boll weevil microtiter plate test on insect diet with eggs. Particulars: 120 h, sprayed onto insect diet, egg and larval mortality after 5 days, read-out: mortality in comparison with untreated controls. How it is done:
B.12 Boll Weevil (Anthonomus Grandis)
For evaluating control of boll weevil (Anthonomus grandis) the test unit consisted of 24-well-microtiter plates containing an insect diet and 20-30 A. grandis eggs.
The compounds were formulated using a solution containing 75% v/v water and 25% v/v DMSO. Different concentrations of formulated compounds were sprayed onto the insect diet at 20 μl, using a custom built micro atomizer, at two replications. After application, microtiter plates were incubated at about 23±1° C. and about 50±5% relative humidity for 5 days. Egg and larval mortality was then visually assessed.

In data set [8] the test system is green peach aphid (Myzus persicae). Put plainly: Green peach aphid systemic test, artificial diet in 96-well plates. Particulars: 72 h, 3 days, read-out: mortality in comparison with untreated controls. An excerpt: B.4 Green Peach Aphid (Myzus Persicae)
For evaluating control of green peach aphid (Myzus persicae) through systemic means the test unit consisted of 96-well-microtiter plates containing liquid artificial diet under an artificial membrane.
The compounds were formulated using a solution containing 75% v/v water and 25% v/v DMSO. Different concentrations of formulated compounds were pipetted into the aphid diet, using a custom built pipetter, at two replications.
After application, 5-8 adult aphids were placed on the artificial membrane inside the microtiter plate wells. The aphids were then allowed to suck on the treated aphid diet and incubated at about 23±1° C. and about 50±5% relative humidity for 3 days. Aphid mortality and fecundity was then visually assessed.

The subject of data set [9] is Diamond Back Moth (Plutella Xylostella). Put plainly: Diamond back moth leaf-dip test on Chinese cabbage. The note with it: foliar, mortality recorded 24, 72 and 120 hours after treatment, read-out: mortality in comparison with untreated controls. How it is done: B.3 Diamond Back Moth (Plutella Xylostella)
Leaves of Chinese cabbage were dipped in test solution and air-dried. Treated leaves were placed in petri dished lined with moist filter paper. Mortality was recorded 24, 72, and 120 hours after treatment.

Data set [10] relates to Mediterranean fruitfly (Ceratitis capitata). Put plainly: Mediterranean fruitfly microtiter plate test on insect diet with eggs. Particulars: 120 h, sprayed onto insect diet, egg and larval mortality after 5 days, read-out: mortality in comparison with untreated controls. How it is done: B.5 Mediterranean Fruitfly (Ceratitis Capitata)
For evaluating control of Mediterranean fruitfly (Ceratitis capitata) the test unit consisted of microtiter plates containing an insect diet and 50-80 C. capitata eggs.
The compounds were formulated using a solution containing 75% v/v water and 25% v/v DMSO. Different concentrations of formulated compounds were sprayed onto the insect diet at 5 μl, using a custom built micro atomizer, at two replications.
as §2

Data set [11] concerns vetch aphid (Megoura viciae). The data set can be described thus: Vetch aphid test on broad bean leaf disks in 24-well plates. Particulars: foliar, 120 h, sprayed onto leaf disks, 5 days, read-out: mortality in comparison with untreated controls. The method, then:
B.10 Vetch Aphid (Megoura Viciae)
For evaluating control of vetch aphid (Megoura viciae) through contact or systemic means the test unit consisted of 24-well-microtiter plates containing broad bean leaf disks.
The compounds were formulated using a solution containing 75% v/v water and 25% v/v DMSO. Different concentrations of formulated compounds were sprayed onto the leaf disks at 2.5 μl, using a custom built micro atomizer, at two replications.
After application, the leaf disks were air-dried and 5-8 adult aphids placed on the leaf disks inside the microtiter plate wells. The aphids were then allowed to suck on the treated leaf disks and incubated at about 23±1° C. and about 50±5% relative humidity for 5 days. Aphid mortality and fecundity was then visually assessed.

For data set [12], the system named is Orchid Thrips (Dichromothrips corbetti). The data set can be described thus: Orchid thrips floral-immersion test. Particulars: 96 h, after 4 days, read-out: mortality in comparison with untreated controls. The method, then: B.6 Orchid Thrips (Dichromothrips corbetti)
Dichromothrips corbettiadults used for bioassay were obtained from a colony maintained continuously under laboratory conditions. For testing purposes, the test compound was diluted to a concentration of 500 ppm (wt compound: vol diluent) in a 1:1 mixture of acetone:water (vol:vol), plus 0.01% vol/vol Kinetic® surfactant.
Thrips potency of each compound was evaluated by using a floral-immersion technique. Plastic petri dishes were used as test arenas. All petals of individual, intact or chid flowers were dipped into treatment solution and allowed to dry. Treated flowers were placed into individual petri dishes along with 10-15 adult thrips. The petri dishes were then covered with lids. All test arenas were held under continuous light and a temperature of about 28° C. for duration of the assay. After 4 days, the numbers of live thrips were counted on each flower, and along inner walls of each petri dish. The level of thrips mortality was extrapolated from pre-treatment thrips numbers.

With `O=C(NCC(F)(F)F)NN=Cc1ccc(C2=NCC(c3cc(Cl)cc(Cl)c3)(C(F)(F)F)C2)cc1Cl` (racemic) [Compound 2-3], the “mortality in comparison with untreated controls” value in data set [1] is recorded as “at least 75%”.
Consider `CNC(=O)NN=Cc1ccc(C2=NCC(c3cc(Cl)cc(Cl)c3)(C(F)(F)F)C2)cc1Cl` (racemic) [Compound 2-4], for which the “mortality in comparison with untreated controls” value in data set [2] is given as “at least 75%”.
`Cc1cc(C2=NCC(c3cc(Cl)cc(Cl)c3)(C(F)(F)F)C2)ccc1/C=N/NC(=O)NCC(F)(F)F` (stereo not drawn) [Compound 1-3, 1-[(E)-[4-[3-(3,5-dichlorophenyl)-3-(trifluoromethyl)-2,4-dihydropyrrol-5-yl]-2-methyl-phenyl]methyleneamino]-3-(2,2,2-trifluoroethyl)urea]: the mortality at 2500 ppm in data set [3], in [7], in data set [8], in [10] and in data set [11] was no less than 75% throughout. The mortality at 500 ppm in data set [4], in data set [6], in [9] and in data set [12] was no less than 75% throughout. Besides, the mortality at 1 ppm in data set [5] was no less than 75%.

The values are drawn from patent US8653000B2, “Imine substituted 2,4-diaryl-pyrroline derivatives as pesticides” (BASF SE, priority 2010, dated 2014).
